Laboratory results from article PMC8191290, “Substrate specificities and reaction kinetics of the yeast oligosaccharyltransferase isoforms” (The Journal of Biological Chemistry, 2021).

Molecular target: T1, OST6 complex (Saccharomyces cerevisiae, UniProt P39007)
T1 construct: were purified separately from strains expressing only one type of complex; made in house; host or cells: Saccharomyces cerevisiae, BY4742-derived strain ost3::LEU2MX6 OST4-1D4::kanMX6 YEp352-OST6
Test: In vitro glycosylation assay, acceptor peptides, OST6 complex
Format: biochemical
Conditions: for OST6 complex activity compared with OST3 complex, in words: synthetic chitobiose-containing LLO, TAMRA-YANATS with 50 μM LLO C20 (Fig. 5A), TAMRA-DANYTK data not shown
Description: Figure 5 OST3 complex turns over both glycosylation substrates faster than the OST6 complex, but with similar substrate affinities.A, enzyme activity of OST3 and OST6 complexes. Reactions were performed with 25 μM peptide TAMRA-YANATS, 50 μM LLO C20, and varying concentrations of purified OST3 complex (blue) or OST6 complex (red). Glycopeptide product was measured by UPLC and initial rates of reaction were determined by linear regression of the initial phase of the reaction. Turnover rates were determined by linear regression of the initial rates of reaction measured across the enzyme concentrations of 0.01–0.1 μM for OST3 complex and 0.1–0.5 μM for OST6 complex. Error bars indicate standard deviations from the mean of three reaction sets (n = 3). B, synthetic LLO preferences of OST3 and OST6 complexes. Reactions were performed with 25 μM peptide TAMRA-YANATS, 50 μM of the indicated LLO (C15, C20, or C25) and 0.09 μM of purified OST3 complex (blue) or 0.5 μM OST6 complex (red). Turnover rates were determined by linear regression of the initial phase of the reaction and accounting for the enzyme concentration in the reaction. Error bars indicate standard deviations from the mean of three reactions (n = 3). C, quantification of kinetic parameters for the synthetic LLO C20. Reactions were performed with 25 μM peptide TAMRA-YANATS, varying concentrations of synthetic LLO C20, and either 0.1 μM purified OST3 complex (blue) or 0.5 μM OST6 complex (red). Turnover rates were determined by linear regression of the initial phase of the reaction and accounting for the enzyme concentration in the reaction. The mean of three reactions is shown and the data were fitted by nonlinear regression according to the Michaelis–Menten formula (R^2 = 0.9685 (OST3 complex), 0.9720 (OST6 complex)) using Prism. Error bars indicate standard deviations from the mean (n = 3). Asterisk indicates a data point not included in the Michaelis–Menten fitting, due to poor fitting. D, quantification of kinetic parameters for the peptide TAMRA-YANATS. Reactions were performed with 100 μM synthetic LLO C20, varying concentrations of peptide TAMRA-YANATS, and 0.1 μM purified OST3 complex (blue) or OST6 complex (red). Turnover rates were determined by linear regression of the initial phase of the reaction and accounting for the enzyme concentration in the reaction. The mean of three reactions is shown and the data were fitted by nonlinear regression according to the Michaelis–Menten formula (R^2 = 0.9794 (OST3 complex), 0.9214 (OST6 complex)) using Prism. Error bars indicate standard deviations from the mean (n = 3). Asterisk indicates data points not included in the Michaelis–Menten fitting, due to poor fitting. E, SDS-PAGE (14 % acrylamide) silver staining of 0.2 μg purified OST3 complex, OST6 complex, and OST3 complex purified from alg6Δ cells. Multiple bands of Ost1p and Wbp1p represent the fully and hypoglycosylated forms of the proteins. Ost4p is tagged with the 1D4 epitope for purification. F, enzyme activity of OST complexes. Reactions were performed with 100 μM peptide TAMRA-YANATS, 50 μM LLO C20, and varying concentrations from 0.1 to 0.3 μM of purified OST3 complex, OST6 complex, or OST3 complex purified from alg6Δ cells. Turnover rates were determined as in A by linear regression of the initial rates of reaction across the enzyme concentrations of 0.1–0.3 μM for each OST. Error bars indicate the standard deviation from the mean turnover rate of three reaction sets (n = 3).
TAMRA-labeled peptides with 5-TAMRA at the N-terminus and an amide group at the C-terminus were synthesized by WatsonBio Sciences. Unlabeled peptides (Table S1) were synthesized by Genscript Corp. and were designed so that the asparagine of the glycosylation sequon was in the middle (except for Peptide 8). Lyophilized peptides were dissolved in dimethyl sulfoxide (DMSO), unless specified otherwise, to a 3 mM stock solution and further diluted in ddH2O for reactions. […]

Substance	kcat/KM (0.1 μM OST6 complex, 100 μM LLO C20) [min^-1 μM^−s1]	kcat (apparent) (0.1 μM OST6 complex, 100 μM LLO C20, varying peptide, 30 °C, n = 3) [s⁻¹]	Km (0.1 μM OST6 complex, 100 μM LLO C20, varying peptide, 30 °C, n = 3, read-out: KM (apparent)) [µM]	affinity for the peptide substrate, OST6 compared with OST3 complex, in words (100 μM LLO C20)	peptide turnover rate of OST6 complex compared with OST3 complex (100 μM LLO C20, TAMRA-YANATS varied)	OST6 complex activity compared with OST3 complex, in words
TAMRA-YANATS [shorter version of Peptide 5 of only six amino acid residues (TAMRA-YANATS)]	0.05	0.0383 ± 0.0033	44.8 ± 5.7	similar	reduced six times	drastically reduced
TAMRA-DANYTK-NH2 [fluorescently labeled hexapeptide TAMRA-DANYTK-NH2 as the acceptor peptide, reference compound]						reduced
